# Measurements: patent US20220265817A1, “THERAPEUTIC COMPOSITIONS AND METHODS FOR TREATING HEPATITIS B” (priority 2017, published 2022)
# pEC50, pIC50: −log10 of the molar value. Like-named read-outs stand apart in the source and are kept apart here. [UNA] = unlocked nucleic acid; m = 2'-O-methyl; r = 2'-OH (RNA)
# How the values were obtained:
# HBV genome = test: siRNA IC50 (Table A); design: species or system Hepatitis B virus
# [1] = system: HBV rcDNA in HepDE19 cells; test: HepDE19 cell culture system, rcDNA quantitation using bDNA assay, MacSynergy II; format: cell-based, human hepatoma cell line; settings: for AVERAGE % INHIBITION: COMPOUND 3 0.000 μM
# Procedure: In vitro combination studies were conducted using the method of Prichard and Shipman (Prichard M N, and Shipman C Jr., Antiviral Research, 1990, 14 (4-5), 181-205; and Prichard M N, et. al., MacSynergy II). HepDE19 cell culture system is a HepG2 (human hepatocarcinoma) derived cell line that supports HBV DNA replication and cccDNA formation in a tetracycline (Tet)-regulated manner and produces HBV rcDNA and a detectable reporter molecule dependent on the production and maintenance of cccDNA (Guo et al 2007. J. Virol 81:12472-12484). HepDE19 (50,000 cells/well) were plated in 96 well collagen-coated tissue-culture treated microtiter plates in DMEM/F12 medium supplemented with 10% fetal bovine serum, 1% penicillin-streptomycin and 1 μg/ml tetracycline and incubated in a humidified incubator at 37° C. and 5% CO2 overnight. Next day, the cells were switched to fresh medium without tetracycline and incubated for 4 hrs at 37° C. and 5% CO2. […] The two inhibitors were tested both singly as well as in combinations in a checkerboard fashion such that each concentration of inhibitor A was combined with each concentration of inhibitor B to determine their combination effects on inhibition of rcDNA production. Following a 7 day-incubation of cells with compound combinations, the level of rcDNA present in the inhibitor-treated wells was measured using a Quantigene 2.0 bDNA assay kit (Affymetrix, Santa Clara, Calif.) with HBV specific custom probe set and manufacturers instructions. […] The RLU data from the single compound treated cells were analyzed using XL-Fit module in Microsoft Excel to determine EC50 values using a 4-parameter curve fitting algorithm. Concurrently, the effect of compounds on cell viability was assessed using replicate plates, plated at a density of 5,000 cells/well and incubated for 4 days, to determine the ATP content as a measure of cell viability using the cell-titer glo reagent (CTG; Promega Corporation, Madison, Wis.) as per manufacturer's instructions.
# In vitro combination studies were conducted using the method of Prichard and Shipman (Prichard M N, Shipman C, Jr., Antiviral Res, 14, 181-205 (1990)). The HepDE19 cell line was developed as described in Guo et al. (Guo et al., J Virol, 81, 12472-12484 (2007)). It is a human hepatoma cell line stably transfected with the HBV genome, and which can express HBV pregenomic RNA and support HBV rcDNA (relaxed circular DNA) synthesis in a tetracycline-regulated manner. HepDE19 cells were plated in 96 well tissue-culture treated microtiter plates in DMEM/F12 medium supplemented with 10% fetal bovine serum+1% penicillin-streptomycin without tetracycline and incubated in a humidified incubator at 37° C. and 5% CO2 overnight. […] The two inhibitors were tested both singly as well as in combinations in a checkerboard fashion such that each concentration of inhibitor A was combined with each concentration of inhibitor B to determine their combination effects on inhibition of rcDNA production. Following a 48 hour-incubation, the level of rcDNA present in the inhibitor-treated wells was measured using a bDNA assay (Affymetrix) with HBV specific custom probe set and manufacturers instructions. […] Concurrently, the effect of inhibitor combinations on cell viability was assessed using replicate plates that were used to determine the ATP content as a measure of cell viability using the Cell-TiterGlo reagent (Promega) as per manufacturer's instructions.
# In vitro combination studies were conducted using the method of Prichard and Shipman (1990) (Prichard M N, Shipman C, Jr. 1990. A three-dimensional model to analyze drug-drug interactions. Antiviral Res 14:181-205 AND Prichard M N. 1992. MacSynergy II, University of Michigan).
# [2] = system: D type HBV in primary human hepatocytes; test: microbe, parasite or virus in culture; format: cell-based; settings: for AVERAGE % INHIBITION: COMPOUND 22 0 nM
# Procedure: (§1) The mouse liver perfusion was applied to isolate PHHs. The isolated hepatocytes were further purified by Percoll. The cells were resuspended with culture media and seeded into the 96-well plates (6×10^4 cell/well) or 48-well plates (1.2×10^5 cell/well). The PHHs were infected with a D type HBV one day post seeding (day 1).
# (§2) On day 2, the test compounds were diluted and added into the cell culture plates. The culture media containing the compounds were refreshed every other day. The cell culture supernatants were collected on day 8 for the HBV DNA and antigen determinations.
# (§3) The compounds were tested at 7 concentrations, 3-fold dilution, in triplicate.
# (§4) Two compounds were tested at 5×5 matrix, in triplicate plates.
# DNA in the culture supernatants harvested on days 8 were isolated with QIAamp 96 DNA Blood Kit (Qiagen-51161). For each sample, 100 μl of the culture supernatants was used to extract DNA. The DNA was eluted with 100 μl, 150 μl or 180 μl of AE. HBV DNA in the culture supernatants was quantified by qPCR. The combination effect was analyzed by the MacSynergy software. The primers are described below.
# [3] = system: D type HBV in primary human hepatocytes (HBsAg); test: microbe, parasite or virus in culture; format: cell-based; settings: for AVERAGE % INHIBITION: COMPOUND 22 0 nM
# Procedure: as §1, §2, §3, §4
# (§5) HBsAg/HBeAg in the culture supernatants harvested on days 8 were measured by the HBsAg/HBeAg ELISA kit (Autobio) according to the manual. The samples were diluted with PBS to get the signal in the range of the standard curve. The inhibition rates were calculated with the formula below. The combination effect was analyzed by the MacSynergy software.
# % Inh. HBsAg=[1-HBsAg quantity of sample/HBV quantity of DMSO control]×100.
# [4] = system: D type HBV in primary human hepatocytes (HBeAg); test: microbe, parasite or virus in culture; format: cell-based
# Procedure: as §1, §2, §3, §4, §5
# % Inh. HBeAg=[1-HBeAg quantity of sample/HBV quantity of DMSO control]×100.
# [5] = Hepatitis B virus, HepDE19, read-out: AVERAGE % INHIBITION
# [6] = Hepatitis B virus, Hepatocyte, read-out: AVERAGE % […] DNA
# [7] = Hepatitis B virus, Hepatocyte, read-out: Inhibitor A EC50
# [8] = Hepatitis B virus, Hepatocyte, read-out: Inhibitor EC50
# [9] = Hepatitis B virus, Hepatocyte, read-out: AVERAGE % INHIBITION HBsAg
molecule,measurement,setting,value
"1m: siRNA duplex SEQ ID NO: 1 and 2 targeting the HBV genome (chain 1 AGGUAUGUUGCCCGUUUGUUU; chain 2 ACAAACGGGCAACAUACCUUU; chain 1: sugars from the 5' end [UNA]mrmrrmmrrrrrmrmrrr[UNA][UNA], backbone not given here; chain 2: sugars from the 5' end rrrrrrmrrrrrrrmrrrr[UNA][UNA], backbone not given here) [Compound 1m]",pIC50,HBV genome,8.84
"2m: siRNA duplex SEQ ID NO: 3 and 4 targeting the HBV genome (chain 1 GCUCAGUUUACUAGUGCCAUU; chain 2 UGGCACUAGUAAACUGAGCUU; chain 1: sugars from the 5' end [UNA]rmmrmrrrrrrrrrrrmrr[UNA], backbone not given here; chain 2: sugars from the 5' end r9 m1 r7 m1 r3, backbone not given here) [Compound 2m]",pIC50,HBV genome,9.43
"3m: siRNA duplex SEQ ID NO: 5 and 6 targeting the HBV genome (chain 1 CCGUGUGCACUUCGCUUCAUU; chain 2 UGAAGCGAAGUGCACACGGUU; chain 1: sugars from the 5' end [UNA]rrrmmrrrrrmrrrmmrr[UNA][UNA], backbone not given here; chain 2: sugars from the 5' end rrrrrrrrrrrmrrrrrmr[UNA][UNA], backbone not given here) [Compound 3m]",pIC50,HBV genome,10.22
"4m: siRNA duplex SEQ ID NO: 7 and 8 targeting the HBV genome (chain 1 GCUCAGUUUACUAGUGCCAUU; chain 2 UGGCACUAGUAAACUGAGCUU; chain 1: sugars from the 5' end [UNA]rmmrmrrrrrrrrrrrmr[UNA][UNA], backbone not given here; chain 2: sugars from the 5' end rrrrrrrrrmrrrrrrrmr[UNA][UNA], backbone not given here) [Compound 4m]",pIC50,HBV genome,9.51
"5m: siRNA duplex SEQ ID NO: 9 and 10 targeting the HBV genome (chain 1 CCGUGUGCACUUCGCUUCAUU; chain 2 UGAAGCGAAGUGCACACGGUU; chain 1: sugars from the 5' end [UNA]rrrmmrrrrrmrrrmrrrr[UNA], backbone not given here; chain 2: sugars from the 5' end r11 m1 r5 m1 r3, backbone not given here) [Compound 5m]",pIC50,HBV genome,10.22
CCOC(=O)C1=C(CN2CCOCC2)NC(c2nccs2)=NC1c1ccc(F)cc1Br (stereo not shown) [GLS4],AVERAGE % INHIBITION,[1]; GLS-4 0.008 μM,−1.17%
same,AVERAGE % INHIBITION,[1]; GLS-4 0.016 μM,−5.82%
same,AVERAGE % INHIBITION,[1]; GLS-4 0.031 μM,7.03%
same,AVERAGE % INHIBITION,[1]; GLS-4 0.063 μM,38.95%
same,AVERAGE % INHIBITION,[1]; GLS-4 0.125 μM,77.82%
same,AVERAGE % INHIBITION,[1]; GLS-4 0.250 μM,94.65%
same,AVERAGE % INHIBITION,[1]; GLS-4 0.500 μM,97.48%
same,AVERAGE % INHIBITION,[1]; GLS-4 1.000 μM,98.51%
same,AVERAGE % INHIBITION,[1]; GLS-4 2.000 μM,98.22%
same,pEC50,"[1]; rcDNA, bDNA assay, DE19 cells, read-out: Inhibitor B EC50",7.11
"CC(C)OC(=O)[C@H](C)N[P@](=O)(CO[C@H](C)Cn1cnc2c(N)ncnc21)Oc1ccccc1 [TAF, tenofovir alafenamide, reference compound]",inhibition at 0.000781 µM,[1]; [5],-4.76%
same,inhibition at 0.001563 µM,[1]; [5],3.49%
same,inhibition at 0.003125 µM,[1]; [5],0.6%
same,inhibition at 0.00625 µM,[1]; [5],10.6%
same,inhibition at 0.0125 µM,[1]; [5],28.6%
same,inhibition at 0.025 µM,[1]; [5],20%
same,inhibition at 0.05 µM,[1]; [5],53.2%
same,inhibition at 0.1 µM,[1]; [5],77.6%
same,inhibition at 0.2 µM,[1]; [5],89.9%
same,pEC50,"[1]; Hepatitis B virus, HepDE19, read-out: Inhibitor B EC50",7.35
same,inhibition at 50 pM,[2]; [6],-8.77%
same,inhibition at 0.00012 µM,[2]; [6],6.36%
same,inhibition at 0.00037 µM,[2]; [6],11.6%
same,inhibition at 0.00041 µM,[2]; [6],28.8%
same,inhibition at 0.00123 µM,[2]; [6],63.4%
same,inhibition at 0.00333 µM,[2]; [6],42.6%
same,inhibition at 0.0037 µM,[2]; [6],78.3%
same,inhibition at 0.01 µM,[2]; [6],43.3%
same,pEC50,[2]; [7],9.39
same,pEC50,[2]; [8],9.39
same,AVERAGE % INHIBITION,[2]; TAF 0.12 nM,−2.6%
same,AVERAGE % INHIBITION,[2]; TAF 0.37 nM,−1.92%
same,AVERAGE % INHIBITION,[2]; TAF 3.33 nM,40.16%
same,AVERAGE % INHIBITION,[2]; TAF 10.00 nM,50.21%
same,AVERAGE % INHIBITION,[2]; TAF […],4.95%
same,inhibition at 50 pM,[3]; [9],-7.35%
same,inhibition at 0.00012 µM,[3]; [9],23%
same,inhibition at 0.00014 µM,[3]; [9],12.8%
same,inhibition at 0.00037 µM,[3]; [9],7.04%
same,inhibition at 0.00041 µM,[3]; [9],11.3%
same,inhibition at 0.00123 µM,[3]; [9],11%
same,inhibition at 0.00333 µM,[3]; [9],16.1%
same,inhibition at 0.0037 µM,[3]; [9],-6.72%
same,inhibition at 0.01 µM,[3]; [9],6.38%
same,pEC50,[3]; [7],< 7.00
same,pEC50,[3]; [8],< 7.00
same,AVERAGE % INHIBITION,[3]; TAF 0.1234568 nM,29.82%
same,AVERAGE % INHIBITION,[3]; TAF 0.3703704 nM,10.78%
same,AVERAGE % INHIBITION,[3]; TAF 1.1111111 nM,20.81%
same,AVERAGE % INHIBITION,[3]; TAF 3.3333333 nM,9.06%
same,AVERAGE % INHIBITION,[3]; TAF 10 nM,7.97%
same,pEC50,[4]; [8],< 7.00
same,AVERAGE % INHIBITION,"[4]; TAF 0.05 nM, COMPOUND 3 0.00 nM",1.17%
same,AVERAGE % INHIBITION,"[4]; TAF 0.12 nM, COMPOUND 22 0 nM",26.61%
same,AVERAGE % INHIBITION,"[4]; TAF 0.14 nM, COMPOUND 3 0.00 nM",−2.78%
same,AVERAGE % INHIBITION,"[4]; TAF 0.37 nM, COMPOUND 22 0 nM",9.9%
same,AVERAGE % INHIBITION,"[4]; TAF 0.41 nM, COMPOUND 3 0.00 nM",1.76%
same,AVERAGE % INHIBITION,"[4]; TAF 1.23 nM, COMPOUND 3 0.00 nM",9.91%
same,AVERAGE % INHIBITION,"[4]; TAF 3.33 nM, COMPOUND 22 0 nM",19.69%
same,AVERAGE % INHIBITION,"[4]; TAF 3.70 nM, COMPOUND 3 0.00 nM",11.87%
same,AVERAGE % INHIBITION,"[4]; TAF 10.00 nM, COMPOUND 22 0 nM",22.85%
same,AVERAGE % INHIBITION,"[4]; TAF […], COMPOUND 22 0 nM",22.56%
